Laboratory results published in US20120021012A1, “NOVEL PHARMACEUTICAL USES FOR NANOPARTICLES” (CENTRE NATIONAL DE LA RECHERCHE SCIENTIFIQUE (C.N.R.S), priority 2008, published 2012).

Tested on: human squamous carcinoma cell line HSC-2
Test: MTT cell survival assay, HSC human cancer cell line
Type: cell-based
Settings: paclitaxel applied 72 hours, AT84 and SG lines (FIG. 4)
Procedure: Cell survival was measured using a colorimetric method with 3-(4,5-dimethylthiazol-2-yl)-2,5-diphenyltetrazolium bromide (MTT). This molecule of yellow colour is reduced by mitochondrial dehydrogenase enzymes to a blue-coloured salt. This allows cell viability to be quantified in response to a treatment.
Cell survival was measured before and after exposure to different concentrations of SiC nanoparticles (0.1-0.5-1 mg/mL in a suspension of RPMI medium 10% FCS).
The cells were cultured in 96-well plates in the presence of SiC nanoparticles for 18 hours after which the media were replaced by standard culture media without any nanoparticles (RPMI medium 10% FCS, Sigma).
Cell viability was measured after different times (24, 48 and 72 hours). […]
Cell viability was measured by the difference in optical density at wavelengths of 450 and 504 nm, using a spectrophotometer connected to a computer system (Power Wave, Bio-Tek Instrument Inc.). The measured absorbency is then directly proportional to the number of living cells. The results are expressed as percentage survival measured under the initial conditions before exposure of the cells to the SiC nanoparticles. […]
Cell survival was measured using a colorimetric method with 3-(4,5-diemthylthiazol-2-yl)-2,5-diphenyltetrazolium bromide (MTT) such as described above in Example 1. […]
Cell viability was measured after 72 hours. […]

CC(=O)O[C@H]1C(=O)[C@@]2(C)[C@H]([C@H](OC(=O)c3ccccc3)[C@]3(O)C[C@H](OC(=O)[C@H](O)[C@@H](NC(=O)c4ccccc4)c4ccccc4)C(C)=C1C3(C)C)[C@]1(OC(C)=O)CO[C@@H]1C[C@@H]2O [paclitaxel]
inhibition percentages of cell survival compared with the SiC nanoparticles: of the same order
